In this test the target is T1, Recombinant mouse PD-L1 (Mus musculus, UniProt Q9EP73).
T1 construct: Fc (Fc chimera); purchased R&D Systems 1019-B7-100
T1 sequence (Q9EP73 with tags, fused parts or gaps limits assumed): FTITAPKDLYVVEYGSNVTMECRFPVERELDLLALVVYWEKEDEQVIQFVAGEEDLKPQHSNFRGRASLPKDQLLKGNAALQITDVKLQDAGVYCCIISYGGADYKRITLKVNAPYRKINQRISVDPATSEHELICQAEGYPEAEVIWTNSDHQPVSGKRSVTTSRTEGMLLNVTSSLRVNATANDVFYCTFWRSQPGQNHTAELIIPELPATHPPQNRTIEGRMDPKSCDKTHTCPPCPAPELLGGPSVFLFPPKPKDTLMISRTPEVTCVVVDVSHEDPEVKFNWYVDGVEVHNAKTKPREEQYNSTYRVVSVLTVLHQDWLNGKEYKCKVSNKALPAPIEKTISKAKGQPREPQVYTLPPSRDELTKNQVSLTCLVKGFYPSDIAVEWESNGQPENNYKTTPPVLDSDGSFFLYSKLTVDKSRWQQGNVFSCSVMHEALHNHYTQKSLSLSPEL
As to the kind of experiment: Rescue of mouse splenocyte proliferation in the presence of recombinant PD-L1 (CFSE proliferation assay). In kind it is cell-based. The settings on record: 100 nM compound; CFSE-labelled C57 BL6 mouse splenocytes + anti-CD3/CD28 + PD-L1 (100 ng/mL), 72 h; normalised to stimulated splenocytes as 100%; read-out: Percent rescue of splenocyte proliferation (@100 nM). Here is the method:
Example 15: Rescue of Mouse Splenocyte Proliferation in the Presence of Recombinant PD-L1
Recombinant mouse PD-L1 (rm-PDL-1, cat no: 1019-B7-100; R&D Systems) were used as the source of PD-L1.
Mouse splenocytes harvested from 6-8 weeks old C57 BL6 mice; RPMI 1640 (GIBCO, Cat #11875); DMEM with high glucose (GIBCO, Cat # D6429); Fetal Bovine Serum [Hyclone, Cat # SH30071.03]; Penicillin (10000 unit/mL)-Streptomycin (10,000 μg/mL) Liquid (GIBCO, Cat #15140-122); MEM Sodium Pyruvate solution 100 mM (100×), Liquid (GIBCO, Cat #11360); Nonessential amino acid (GIBCO, Cat #11140); L-Glutamine (GIBCO, Cat #25030); Anti-CD3 antibody (eBiosciences—16-0032); Anti-CD28 antibody (eBiosciences—16-0281); ACK lysis buffer (1 mL) (GIBCO, Cat #-A10492); Histopaque (density-1.083 gm/mL) (SIGMA 10831); Trypan blue solution (SIGMA-T8154); 2 mL Norm Ject Luer Lock syringe-(Sigma 2014-12); 40 μm nylon cell strainer (BD FALCON 35230); Hemacytometer (Bright line-SIGMA Z359629); FACS Buffer (PBS/0.1% BSA): Phosphate Buffered Saline (PBS) pH 7.2 (HiMedia TS1006) with 0.1% Bovine Serum Albumin (BSA) (SIGMA A7050) and sodium azide (SIGMA 08591); 5 mM stock solution of CFSE: CFSE stock solution was prepared by diluting lyophilized CFSE with 180 μL of Dimethyl sulfoxide (DMSO C2H6SO, SIGMA-D-5879) and aliquoted in to tubes for further use. Working concentrations were titrated from 10 μM to 1 μM. (eBioscience—650850-85); 0.05% Trypsin and 0.02% EDTA (SIGMA 59417C); 96-well format ELISA plates (Corning CLS3390); BD FACS caliber (E6016); Recombinant mouse B7-H1/PDL1 Fc Chimera, (rm-PD-L1 cat no: 1019-B7-100).
Splenocytes harvested in a 50 mL falcon tube by mashing mouse spleen in a 40 μm cell strainer were further treated with 1 mL ACK lysis buffer for 5 min at room temperature. After washing with 9 mL of RPMI complete media, cells were re-suspended in 3 mL of 1×PBS in a 15 mL tube. 3 mL of Histopaque was added carefully to the bottom of the tube without disturbing overlaying splenocyte suspension. After centrifuging at 800×g for 20 min at room temperature, the opaque layer of splenocytes was collected carefully without disturbing/mixing the layers. Splenocytes were washed twice with cold 1×PBS followed by total cell counting using Trypan Blue exclusion method and used further for cell based assays.
Splenocytes were cultured in RPMI complete media (RPMI+10% fetal bovine serum+1 mM sodium pyruvate+10,000 units/mL penicillin and […] streptomycin) and maintained in a CO2 incubator with 5% CO2 at 37° C.
CFSE is a dye that passively diffuses into cells and binds to intracellular proteins. 1×10^6 cells/mL of harvested splenocytes were treated with 5 μM of CFSE in pre-warmed 1×PBS/0.1% BSA solution for 10 min at 37° C. Excess CFSE was quenched using 5 volumes of ice-cold culture media to the cells and incubated on ice for 5 min. CFSE labelled splenocytes were further given three washes with ice cold complete RPMI media. CFSE labelled 1×10^5 splenocytes added to wells containing either MDA-MB231 cells (1×10^5 cells cultured in high glucose DMEM medium) or recombinant human PDL-1 (100 ng/mL) and test compounds. Splenocytes were stimulated with anti-mouse CD3 and anti-mouse CD28 antibody (1 μg/mL each) and the culture was further incubated for 72 h at 37° C. with 5% CO2. Cells were harvested and washed thrice with ice cold FACS buffer and % proliferation was analysed by flow cytometry with 488 nm excitation and 521 nm emission filters.
Percent splenocyte proliferation was analysed using cell quest FACS program and percent rescue of splenocyte proliferation by compound was estimated after deduction of % background proliferation value and normalising to % stimulated splenocyte proliferation (positive control) as 100%.
Stimulated splenocytes: Splenocytes+anti-CD3/CD28 stimulation
Background proliferation: Splenocytes+anti-CD3/CD28+PD-L1
Compound proliferation: Splenocytes+anti-CD3/CD28+PD-L1+Compound […]
For `CC(O)[C@H](NC(=O)N[C@@H](CC(N)=O)c1nc([C@@H](N)Cc2ccc(O)cc2)no1)C(=O)O` (stereo partly shown) [Compound 42], the activation at 0.1 µM came to 50%.
The value for `CCC(C)[C@H](N)c1noc([C@@H](NC(=O)N[C@H](C(=O)O)C(C)O)C(C)CC)n1` (stereo partly shown) [Compound 52] was 71%; that for `CC(O)[C@H](NC(=O)N[C@H](c1nc([C@@H](N)CO)no1)C(C)C)C(=O)O` (stereo partly shown) [Compound 44] was 71%; that for `CC(O)[C@H](NC(=O)N[C@@H](CC(N)=O)c1nc([C@@H](N)CCC(=O)O)no1)C(=O)O` (stereo partly shown) [Compound 2] was 68%.
The value for `CCC(C)[C@H](NC(=O)N[C@@H](CC(N)=O)c1nc([C@@H](N)CO)no1)C(=O)O` (stereo partly shown) [Compound 3] was 73%; that for `NCCCC[C@H](NC(=O)N[C@@H](CC(=O)O)c1nc([C@@H](N)Cc2cnc[nH]2)no1)C(=O)O` [Compound 35] was 66%.
`C[C@@H](O)[C@H](NC(=O)N[C@@H](CC(N)=O)c1nc([C@@H](N)Cc2c[nH]c3ccccc23)no1)C(=O)O` (stereo in doubt) [Compound 41]: the activation at 0.1 µM stood at 78%.
For `CC(O)[C@H](N)c1noc([C@H](Cc2ccccc2)NC(=O)N2CCC[C@H]2C(=O)O)n1` (stereo partly shown) [Compound 62] the value was 35%; for `CC(O)[C@H](NC(=O)N[C@@H](CC(N)=O)c1nc([C@@H](N)CO)no1)C(=O)Nc1ccc2c(c1)OCCO2` (stereo partly shown) [Compound 51], 20%.
Consider `CCN(Cc1ccccc1)C(=O)N[C@@H](CC(N)=O)c1nc([C@@H](N)CO)no1` (stereo in doubt) [Compound 94], for which the activation at 0.1 µM is 97%.
For `N[C@@H](CO)c1noc([C@H](CO)NC(=O)N[C@@H](CO)C(=O)O)n1` [Compound 47] the value was 49%.
On to `CC(O)[C@H](NC(=O)N1CCC[C@H]1c1nc([C@@H](N)Cc2ccc(O)cc2)no1)C(=O)O` (stereo partly shown) [Compound 21], for which the activation at 0.1 µM is 51%.
The value for `NC(=O)C[C@H](NC(=O)N[C@@H](Cc1ccccc1)C(=O)O)c1nc([C@@H](N)CO)no1` [Compound 39] was 75%; that for `NC(=O)C[C@H](NS(=O)(=O)C1CCCC1)c1nc([C@@H](N)CO)no1` [Compound 88] was 10%.
For `CC(=O)NCCCC[C@H](NC(=O)N[C@H](C(=O)O)C(C)O)c1nc([C@@H](N)CO)no1` (stereo partly shown) [Compound 27] the value was 37%.
Take `NC(=O)C[C@H](NC(=O)N[C@@H](CCC(=O)O)C(=O)O)c1nc([C@@H](N)CO)no1` [Compound 4]: the activation at 0.1 µM amounted to 44%.
For `CC(O)[C@H](NC(=O)N[C@@H](CC(N)=O)c1nc([C@@H](N)C(C)C)no1)C(=O)O` (stereo partly shown) [Compound 40], the activation at 0.1 µM turned out to be 67%.
Take `CCCCCOC(=O)[C@@H](NC(=O)N[C@@H](CC(N)=O)c1nc([C@@H](N)CO)no1)C(C)O` (stereo partly shown) [Compound 80]: the activation at 0.1 µM stood at 55%.
`C[C@H](NC(=O)N[C@@H](CC(N)=O)c1nc([C@@H](N)CO)no1)C(=O)O` [Compound 18]: the activation at 0.1 µM is 57%.
The value for `CC(O)[C@H](NC(=O)N[C@@H](CC(=O)O)c1nc([C@@H](N)Cc2cnc[nH]2)no1)C(=O)O` (stereo partly shown) [Compound 34] was 59%.
The value for `C[C@H](NC(=O)N[C@@H](C)c1nc([C@H](C)N)no1)C(=O)O` [Compound 1] was 76%; that for `CCC(C)[C@H](NC(=O)N[C@H](C(=O)O)C(C)O)c1nc([C@@H](N)CO)no1` (stereo partly shown) [Compound 16] was 50%.
The value for `NC(=O)C[C@H](NC(=O)N[C@@H](CC(N)=O)c1nc([C@@H](N)CC(N)=O)no1)C(=O)O` [Compound 56] was 26%.
For the molecule `CC(C)C[C@H](N)c1noc([C@H](CC(N)=O)NC(=O)CNC(=O)N[C@H](C(=O)O)C(C)O)n1` (stereo partly shown) [Compound 82], the activation at 0.1 µM was 12%.
The value for `CC(O)[C@@H](NC(=O)N[C@@H](CC(N)=O)c1nc([C@@H](N)CO)no1)c1nnc(CO)o1` (stereo partly shown) [Compound 79] was 37%.
For `CSCC[C@H](N)c1noc([C@H](CC(N)=O)NC(=O)N[C@@H](CC(=O)O)C(=O)O)n1` [Compound 46] the value was 53%; for `NCCCC[C@H](NC(=O)N[C@@H](CC(N)=O)c1nc([C@@H](N)CO)no1)C(=O)O` [Compound 5], 38%.
The value for `CC(O)[C@H](NC(=O)N1CCC[C@H]1c1nc([C@@H](N)CO)no1)C(=O)O` (stereo partly shown) [Compound 6] was 69%.
On to `NCCCC[C@H](N)c1noc([C@H](CC(N)=O)NC(=O)N[C@@H](CO)C(=O)O)n1` [Compound 31], for which the activation at 0.1 µM turned out to be 42%.
As for `CC(=O)Nc1ccc(S(=O)(=O)N[C@@H](CC(N)=O)c2nc([C@@H](N)CO)no2)cc1` [Compound 90], the activation at 0.1 µM was determined as 66%.
For `NC(=O)C[C@H](NS(=O)(=O)C1CCCCC1)c1nc([C@@H](N)CO)no1` [Compound 89] the value was 54%.
For `CCC(C)[C@H](N)c1noc([C@H](CC(N)=O)NC(=O)N[C@H](C(=O)O)C(C)O)n1` (stereo partly shown) [Compound 9] the value was 84%; for `CCCCCCNC(=O)CC[C@H](NC(=O)N[C@@H](CCC(N)=O)C(=O)N[C@H](C(=O)O)C(C)O)c1nc([C@@H](N)CO)no1` (stereo partly shown) [Compound 78], 42%.
For `CC(O)[C@H](NC(=O)N[C@@H](CC(N)=O)c1noc([C@@H](N)CO)n1)C(=O)O` (stereo partly shown) [Compound 83] the value was 34%.
In the case of `CCCCCCNC(=O)CC[C@@H](NC(=O)N[C@H](C(=O)O)C(C)O)c1nc([C@@H](N)CO)no1` (stereo partly shown) [Compound 76], the activation at 0.1 µM was 67%.
For `CC(O)[C@H](NC(=O)N[C@@H](Cc1c[nH]c2ccccc12)c1nc([C@@H](N)CO)no1)C(=O)O` (stereo partly shown) [Compound 43] the value was 60%; for `N[C@@H](Cc1ccc(O)cc1)c1noc([C@@H]2CCCN2C(=O)N[C@@H](Cc2ccc(O)cc2)C(=O)O)n1` [Compound 7], 91%.
For `Cn1cc(CN[C@@H](CC(N)=O)c2nc([C@@H](N)CO)no2)cn1` [Compound 95] the value was 30%.
Take `N=C(N)NCCC[C@H](N)c1noc([C@H](CC(=O)O)NC(=O)N[C@@H](CO)C(=O)O)n1` [Compound 30]: the activation at 0.1 µM was 65%.
For `CC(O)[C@H](NC(=O)N[C@@H](CC(=O)O)c1nc([C@@H](N)CCCNC(=N)N)no1)C(=O)O` (stereo partly shown) [Compound 32] the value was 70%; for `CCCCCCNC(=O)C[C@H](NC(=O)N[C@H](C(=O)O)C(C)O)c1nc([C@@H](N)CO)no1` (stereo partly shown) [Compound 77], 75%.
The value for `CC(O)[C@H](NC(=O)N[C@@H](CC(N)=O)c1nc([C@@H](N)Cc2ccccc2)no1)C(=O)O` (stereo partly shown) [Compound 13] was 62%; that for `CCCNC(=O)CC[C@H](NC(=O)N[C@H](C(=O)O)C(C)O)c1nc([C@@H](N)CO)no1` (stereo partly shown) [Compound 75] was 119%.

(Values after US10781189B2, “1,2,4-Oxadiazole and thiadiazole compounds as immunomodulators” (Aurigene Discovery Technologies Limited, priority 2015, dated 2020).)
